# Where no end group is shown, it is not given here.
# Columns and labels:
# Format in all cases: in vivo, rat
# rats [1] = experiment: Food intake and feeding duration in rats after ICV administration; conditions: for overnight food intake, change expressed as percentage of control group: n=12 per group
# Description: Male rats (Charles River Sprague Dawley) weighing 250–350 g were maintained in a temperature and humidity controlled facility with a 12 hour light/dark cycle (4:00 AM lights on). Rats were individually housed in custom designed shoebox cages on wire floors and fed ad libitum with fresh diet provided daily. […] Attached to the food drawers was an infrared feeding monitor that projects a beam across the drawer above the food (MiniMitter, Inc., Sun River, Oreg.). When the animal broke the infrared beam it caused a switch closure. An oscillator then sent off pulses (one pulse/second) and the total number of pulses indicated the length of time that the beam was broken which corresponds to the length of time spent feeding (recorded as feeding duration).
# Cannulation and ICV administration were performed essentially as described in Murphy et al 1998 Neuropeptides 32:491–497, which is hereby incorporated by reference. After cannulation, rats were allowed to recover a minimum of seven days before injection with test compounds. All test substances were dissolved in artificial cerebral spinal fluid (aCSF). Rats were injected ICV with 1, 3, or 10 μg of rat NMU-23 (Phoenix Pharmaceuticals). Additional rats were injected ICV with either 0.3 or 0.03 μg of MT-II (Peninsula Laboratories) as a positive control for food intake suppression (melanocortin receptor agonist). […] Another group of ICV-cannulated rats were used in conditioned taste aversion (CTA) and sodium appetite (SA) aversion assays.
# rats [2] = experiment: Conditioned taste aversion (CTA) assay in rats; conditions: for saccharin intake relative to total intake (taste aversion): 24 hours post-dosing
# Description: In the CTA study, rats were conditioned to two hour daily access to water, with access to water from two bottles for two hours each day for three days. On the fourth day, rats were given 0.15% saccharin for the two hour period instead of water and saccharin consumption measured. Rats were injected NMU-23 (0, 3, or 10 μg, ICV). LiCl was used as a positive control (0.15 M; 2 ml/kg, i.p.). On the fifth day, rats were given saccharin alone for the first hour, then water was added for the remaining 23 hours. Fluid consumption was measured at 1, 2, and 24 hours post injection. Aversion was assessed as a function of drinking preferences.
# rats [3] = experiment: Sodium (salt) appetite aversion assay in rats; conditions: sodium-depleted rats
# Description: In the salt appetite assay, rats were given 0.5 M NaCl salt water to drink for three days along with food and regular water. After three days, two injections of furosemide (5 mg /0.2 ml, s.c.) were given at one hour apart to sodium-deplete the rats. Rats were then returned to salt-free water and given a sodium-deficient diet. Rats actively seek to defend their internal sodium levels. Consequently, when sodium is depleted, they will avidly drink salt solutions unless ill or nauseous. Twenty-four hours following furosemide administration, rats were given NMU (0, 3, or 10 μg, ICV), or LiCl (0.15 M, 2 ml/kg, i.p.) and given water and 0.5 M NaCl to drink. Fluid consumption was measured 1, 2, and 24 hours post dosing.
compound,measurement,setting,value
YKVNEYQGPVAPSGGFFLFRPRN-NH2 [NMU],"cumulative feeding duration, change",rats [1]; 3 μg ICV,−33%
same,"overnight food intake, change expressed as percentage of control group",rats [1]; 3 μg ICV,−38±6%
same,"cumulative feeding duration, change",rats [1]; 10 μg ICV,−39%
same,"overnight food intake, change expressed as percentage of control group",rats [1]; 10 μg ICV,−32±3%
same,saccharin intake relative to total intake (taste aversion),rats [2]; 3 μg ICV,did not decrease saccharin intake
same,saccharin intake relative to total intake (taste aversion),rats [2]; 10 μg ICV,did not decrease saccharin intake
same,total amount of salt intake (sodium appetite),rats [3]; 3 μg ICV,did not significantly change
same,total amount of salt intake (sodium appetite),rats [3]; 10 μg ICV,did not significantly change
MT-II,overnight food intake,"rats [1]; 0.3 μg ICV, positive control",significantly decreased
same,"cumulative feeding duration, change","rats [1]; ICV, positive control",−71%
[Cl-].[Li+] [LiCl],saccharin intake (taste aversion),"rats [2]; 0.15 M, 2 ml/kg i.p., emetic control",decreased saccharin intake
same,salt intake (sodium appetite),"rats [3]; 0.15 M, 2 ml/kg i.p.",significantly decreased salt intake

# From patent publication US7163799B2, “Neuromedin U receptor NMUR2 and nucleotides encoding it” (Merck & Co., Inc., priority 2000, dated 2007)
